Assay [1] in a line: Singlet oxygen scavenging assay. The class given is biochemical. The following applies: mean ± S.D., n = 6.
A short description of assay [2]: Hypochlorous acid scavenging assay. The following applies: mean ± S.D., n = 6. The class given is biochemical.
Assay [3] is described as follows: DPPH radical scavenging assay. The class given is biochemical. The following applies: mean ± S.D., n = 6. As to the method:
Standard methods were used to evaluate the Fe^3+-reducing capacity of the extract. The DPPH (2,2-diphenyl-1-picrylhydrazyl) scavenging potential of the extract was investigated according to Ghate et al, 2013 [9]. The scavenging percentage of PNME was evaluated from the values of the control and the test samples.
(Loss of DPPH colour is used to gauge radical scavenging.)

A short description of assay [4]: Fe2+ chelating activity assay. The class given is biochemical. To be noted: for Iron chelation activity (in words): Fig 12C. As to the method: (§1) The Fe^2+ chelating ability was determined as described earlier. […] The densitometric analysis of the DNA bands was performed using ImageJ 1.47v tool by the software company NIH, USA. The DNA supercoil protection capacity of the fruit extract was expressed as the [P]50 value, the amount of sample required for 50% protection. The degree of inhibition of Fe^2+-mediated lipid peroxidation was assessed by estimating the TBARS by the method of Ghate et al. 2013 [9] using freshly prepared brain homogenates of Swiss albino mouse brains. The results are expressed as a percentage of inhibition.

Assay [5] in a line: Peroxynitrite scavenging assay. The class given is biochemical. To be noted: mean ± S.D., n = 6.
Assay [6] can be described thus: Hydroxyl radical scavenging assay. The class given is biochemical. To be noted: mean ± S.D., n = 6.
Assay [7] in a line: Superoxide anion scavenging assay. The following applies: mean ± S.D., n = 6. The class given is biochemical.
Assay [8] deals with Fe2+-mediated lipid peroxidation. Briefly: Inhibition of Fe2+-mediated lipid peroxidation (TBARS) in brain homogenates. The class given is biochemical, Swiss albino mouse. To be noted: mouse brain homogenate, mean ± S.D., n = 6. On the procedure:
as §1

Assay [9] deals with iron overload induced hepatotoxicity in mice. Kind of assay: Serum markers in iron-dextran overloaded mice after oral therapy. The class given is in vivo, Swiss albino mice. The following applies: desirox 20 mg/kg b.w. oral. As to the method: (one dose every alternative days).
Aspartate amino transferase (ASAT), alanine amino transferase (ALAT), and billirubin levels in the serum were evaluated using commercially available kits from Merck (India). Moreover, alkaline phosphatase (ALP) levels in the serum were measured by a kit procured from Sentinel Diagnostics, Italy.

≈ marks a conversion by molar mass, not a printed value.

On to `O=C(O)CCCC[C@@H]1CCSS1` (racemic) [Lipoic acid], for which, in assay [1], the “IC50 Singlet oxygen (1O2) scavenging” value came out at 46.15 ± 1.16 µg/mL (≈ 224 µM). Regarding `O=C1O[C@H]([C@@H](O)CO)C(O)=C1O` [Ascorbic acid], the “IC50 Hypochlorous acid (HOCl) scavenging” value in [2] is 235.96 ± 5.75 µg/mL (≈ 1340 µM). The “IC50 DPPH scavenging” value in [3] was determined as 5.29 ± 0.28 µg/mL (≈ 30 µM). Moreover, the “Iron chelation activity (in words)” value in assay [4] was “failed to show any activity”. For the molecule `O=C(O)CN(CCN(CC(=O)O)CC(=O)O)CC(=O)O` [EDTA, Ethylenediamine tetraacetic acid], the “IC50 Iron chelating activity” value in [4] (mean ± S.D., n = 6) came to 1.27 ± 0.05 µg/mL (≈ 4.35 µM). Turning to `O=C(O)c1cc(O)c(O)c(O)c1` [Gallic acid], the “IC50 Peroxynitrite (ONOO-) scavenging” value in assay [5] amounted to 876 ± 570 µg/mL (≈ 5150 µM). For `OC[C@@H](O)[C@@H](O)[C@H](O)[C@H](O)CO` [Mannitol], the “IC50 Hydroxyl radical (OH•) scavenging” value in assay [6] is 571.45 ± 20.12 µg/mL (≈ 3140 µM).

For the molecule `O=c1c(O)c(-c2ccc(O)c(O)c2)oc2cc(O)cc(O)c12` [Quercetin], the “IC50 Superoxide anion (O2•−) scavenging” value in assay [7] is 42.06 ± 1.35 µg/mL (≈ 139 µM). Consider `COC(=O)[C@H]1[C@H]2C[C@@H]3c4[nH]c5cc(OC)ccc5c4CCN3C[C@H]2C[C@@H](OC(=O)c2cc(OC)c(OC)c(OC)c2)[C@@H]1OC` [Reserpine, reserpine], for which, in assay [4], the “Iron chelation activity (in words)” value is recorded as “failed to show any activity”.

On to `Cc1c(C)c2c(c(C)c1O)CCC(C)(C(=O)O)O2` (stereo not shown) [Trolox, 6-hydroxy-2,5,7,8-tetramethylchroman-2-carboxylic acid], for which, in assay [8], the “IC50 Lipid peroxidation” value amounted to 6.76 ± 0.17 µg/mL (≈ 27 µM). `O.Oc1cc(O)c2c(c1)O[C@H](c1ccc(O)c(O)c1)[C@@H](O)C2` [catechin]: the “Iron chelation activity (in words)” value in assay [4] is reported as “failed to show any activity”.

With `O=C(O)c1ccc(-n2nc(-c3ccccc3O)nc2-c2ccccc2O)cc1` [desirox, Deferasirox], in assay [9] (D, change versus blank group B), the ALAT % change came out at 52.80%, the ALP % change amounted to 84.44%, the ASAT % change is given as 17.36% and the Bilirubin % change is 10.97%. Further, in assay [9] (serum, 21 days (D)), the ALAT was 23.55±1.09 ^X3Y3 Unit/L, the ALP is on record as 61.01± 2.44 ^X3Y3 Unit/L and the ASAT is on record as 79.35±4.37 ^X1 Y3 Unit/L. Regarding tannic acid, in assay [4], the “Iron chelation activity (in words)” value was “most potent iron chelator”.

These data come from publication PMC4669143, “Wild Edible Fruit of Prunus nepalensis Ser. (Steud), a Potential Source of Antioxidants, Ameliorates Iron Overload-Induced Hepatotoxicity and Liver Fibrosis in Mice” (PLoS ONE, 2015).
